Laboratory results published in US20170165286A1, “COMPOSITIONS AND METHODS FOR TREATING DIABETES AND LIVER DISEASES” (Cempra Pharmaceuticals, Inc., priority 2014, published 2017).
Read-outs that look alike come from different tables or passages of the source.

Tests used:
[1] = Phase 1 study in subjects with hepatic impairment: pharmacokinetics and protein binding; assay type: in vivo, humans; set-up: AUC(0-t): concentration or dose not given beside the values; settings: for AUC0-t Geometric Mean Ratio (%) (test/reference) / AUC0-tau Geometric Mean Ratio (%) (test/reference) / Cmax Geometric Mean Ratio (%) (test/reference) / AUC(0-t) / AUC / Cmax: Day 5; for AUC(0-t) / AUC / Cmax / half-life: human, plasma
Description: Safety and Pharmacokinetics of solithromycin in Subjects with Hepatic Impairment. The safety, pharmacokinetics (PK), and protein binding of solithromycin was evaluated in subjects with mild, moderate, and severe hepatic impairment compared to healthy subjects with normal hepatic function (matched for age, weight, and gender). The evaluation was performed in a Phase 1, open-label, multiple-dose study in subjects with mild (Child-Pugh Class A), moderate (Child-Pugh Class B), and severe (Child-Pugh Class C) hepatic impairment and healthy matched control subjects with normal hepatic function. All subjects received a once-daily dose of 800 mg on Day 1 followed by 400 mg on Days 2 through 5.
PK parameters on Day 5 were compared between the hepatic impaired cohorts and the control group, and geometric mean ratios were calculated.

human FXR = experiment: FXR reporter cell assays (agonist and antagonist); assay type: cell-based; settings: reporter cells, from 30 μM, 1:3 dilutions
Description: FXR Signal Pathway. […] Solithromycin is tested in reporter cell assays expressing a hybrid FXR receptor (Indigo Biosciences, PA). Agonist and antagonist activity is measured. Solithromycin is tested starting at 30 μM and continuing with 1:3 dilutions. […] Without being bound by theory, it is believed herein that dependence upon the FXR pathway for activity in treating the diseases described herein may lead to increased triglycerides (TGs) and low density lipids (LDL) as an unwanted side effects. For example, patients with various forms of FLD may be at risk for cardiovascular disease, which may be aggravated by increased triglycerides and low density lipids.

STAM mice = experiment: STAM model: HE staining, NAFLD Activity score; assay type: in vivo; settings: for NAFLD Activity Score: 5-9 wks
Description: NASH-HCC (STAM™) Model. C57BL/6 (15-day-pregnant female) mice are obtained from Charles River Laboratories Japan (Kanagawa, Japan). Male pups are selected for the study. NASH is induced in male mice by a single subcutaneous injection of 200 μg streptozotocin (STZ, Sigma-Aldrich, USA) solution 2 days after birth, followed by feeding a HFD (57 kcal % fat, cat#: HFD32, CLEA Japan, Japan) beginning at 4 weeks of age. At 5 weeks of age, mice are divided into a control group and one or more treated group (generally 8 mice per group). Animals are sacrificed at 9 weeks of age, and biochemical, histological, and gene expression analyses are performed.
During weeks 5-9 (starting at day 35±2), test compound is administered (generally orally) at various doses diluted to 10 mL/kg and according to various dosing protocols to treatment groups (8 mice each) while a second group (8 mice) is administered vehicle only. Animals are sacrificed at 9 weeks.
Histopathological analyses. For HE staining, sections are cut from paraffin blocks of left lateral liver tissue prefixed in Bouin's solution and stained with Lillie-Mayer's Hematoxylin (Muto Pure Chemicals, Japan) and eosin solution (Wako Pure Chemical Industries). NAFLD Activity score (NAS) is calculated according to the criteria of Kleiner (Kleiner D E. et al., Hepatology, 2005; 41:1313). A NAS≧5 with steatosis and hepatocyte ballooning is generally considered diagnostic of NASH.
Illustrative dose response test groups. Group 1-Normal. Eight normal mice are fed with a normal diet ad libitum without any treatment until 9 weeks of age. Group 2-Vehicle. Eight NASH mice are orally administered vehicle (0.5% w/v methylcellulose+0.2% Tween®80) in a volume of 10 mL/kg twice daily from 5 to 9 week of age. Group 3-solithromycin 5 mg/kg. Eight NASH mice are orally administered vehicle supplemented with solithromycin at a dose of 5 mg/kg in the morning and the vehicle in the evening (5 mg/kg/day) from 5 to 9 weeks of age. Group 4-solithromycin 10 mg/kg. Eight NASH mice are orally administered vehicle supplemented with solithromycin at a dose of 10 mg/kg twice daily (20 mg/kg/day) from 5 to 9 weeks of age. Group 5-solithromycin 25 mg/kg. Eight NASH mice are orally administered vehicle supplemented with solithromycin at a dose of 25 mg/kg twice daily (50 mg/kg/day) from 5 to 9 weeks of age. Group 6-solithromycin 50 mg/kg. Eight NASH mice are orally administered vehicle supplemented with solithromycin at a dose of 50 mg/kg once daily (50 mg/kg/day) from 5 to 9 weeks of age.

SMILES: CC[C@H]1OC(=O)[C@@](C)(F)C(=O)[C@H](C)[C@@H](O[C@@H]2O[C@H](C)C[C@H](N(C)C)[C@H]2O)[C@](C)(OC)C[C@@H](C)C(=O)[C@H](C)[C@H]2N(CCCCn3cc(-c4cccc(N)c4)nn3)C(=O)O[C@]12C [solithromycin]
- AUC0-t Geometric Mean Ratio (%) (test/reference) ([1]; Mild versus Control): 117.44%
- AUC0-tau Geometric Mean Ratio (%) (test/reference) ([1]; Mild versus Control): 75.30%
- Cmax Geometric Mean Ratio (%) (test/reference) ([1]; Mild versus Control): 121.08%
- AUC0-t Geometric Mean Ratio (%) (test/reference) ([1]; Moderate versus Control): 117.83%
- AUC0-tau Geometric Mean Ratio (%) (test/reference) ([1]; Moderate versus Control): 71.58%
- Cmax Geometric Mean Ratio (%) (test/reference) ([1]; Moderate versus Control): 105.36%
- AUC0-t Geometric Mean Ratio (%) (test/reference) ([1]; Severe versus Control): 109.95%
- AUC0-tau Geometric Mean Ratio (%) (test/reference) ([1]; Severe versus Control): 58.86%
- Cmax Geometric Mean Ratio (%) (test/reference) ([1]; Severe versus Control): 77.69%
- Accumulation on Day 5 ([1]; any of the hepatic impaired cohorts): No accumulation
- AUC(0-t) ([1]; healthy control subjects, read-out: AUC0-t (Reference Group)): 7.55 µg·h/mL
- AUC ([1]; healthy control subjects, read-out: AUC0-tau (Reference Group)): 10.5 µg·h/mL
- Cmax ([1]; healthy control subjects, read-out: Cmax (Reference Group)): 0.649 µg/mL
- Cmax ([1]; mild hepatic impairment, 800 mg Day 1, 400 mg Days 2-5, read-out: Cmax (Test Group)): 0.786 µg/mL
- AUC(0-t) ([1]; mild hepatic impairment, read-out: AUC0-t (Test Group)): 8.87 µg·h/mL
- AUC ([1]; mild hepatic impairment, read-out: AUC0-tau (Test Group)): 7.9 µg·h/mL
- AUC(0-t) ([1]; moderate hepatic impairment, read-out: AUC0-t (Test Group)): 8.9 µg·h/mL
- AUC ([1]; moderate hepatic impairment, read-out: AUC0-tau (Test Group)): 7.51 µg·h/mL
- Cmax ([1]; moderate hepatic impairment, read-out: Cmax (Test Group)): 0.684 µg/mL
- AUC(0-t) ([1]; severe hepatic impairment, read-out: AUC0-t (Test Group)): 8.31 µg·h/mL
- AUC ([1]; severe hepatic impairment, read-out: AUC0-tau (Test Group)): 6.18 µg·h/mL
- Cmax ([1]; severe hepatic impairment, read-out: Cmax (Test Group)): 0.504 µg/mL
- half-life ([1]; control): 8.9 h
- half-life ([1]; mild hepatic impairment): 10.2 h
- half-life ([1]; moderate hepatic impairment): 10.4 h
- half-life ([1]; severe hepatic impairment): 15.7 h
- Mean plasma protein binding percentage at Day 5 Cmax ([1]; mild or moderate hepatic impairment vs control): not significantly affected
- Mean plasma protein binding percentage at Day 5 Cmax ([1]; severe cohort vs control): slightly lower
- Agonist activity (human FXR; hybrid FXR receptor): not show agonistic activity
- Antagonist activity (human FXR; hybrid FXR receptor): nor significant antagonistic activity
- Cytotoxicity in the antagonist assays (human FXR): does not show evidence of cytotoxicity
- NAFLD Activity Score (STAM mice; 5 mg/kg q.d. oral, 5 mg/kg): no statistically significant difference
- NAFLD Activity Score (STAM mice; 5 mg/kg q.d. oral, listed as Solithromycin, 5 mg/kg): 4.8 ± 0.9
- NAFLD Activity Score (STAM mice; 10 mg/kg b.i.d. oral, 10 mg/kg): significantly decreased
- NAFLD Activity Score (STAM mice; 10 mg/kg b.i.d. oral, listed as Solithromycin, 10 mg/kg): 3.3 ± 0.9
- NAFLD Activity Score (STAM mice; 25 mg/kg b.i.d. oral, 25 mg/kg): significantly decreased
- NAFLD Activity Score (STAM mice; 25 mg/kg b.i.d. oral, listed as Solithromycin, 25 mg/kg): 2.9 ± 1.0
- NAFLD Activity Score (STAM mice; 50 mg/kg q.d. oral, 50 mg/kg): significant reduction
- NAFLD Activity Score (STAM mice; 50 mg/kg q.d. oral, listed as Solithromycin, 50 mg/kg): 3.0 ± 0.9
- Hepatocellular ballooning and inflammatory cell infiltration compared to vehicle group (STAM mice; Groups 4-6): significant improvements
